Assay results from ChEMBL document CHEMBL4184249, “Structural development of tetrachlorophthalimides as liver X receptor β (LXRβ)-selective agonists with improved aqueous solubility” (Bioorg Med Chem Lett, 2018).
Active and inactive are the calls of the source. No cut-off for these calls is given here.

Tests used:
Type in all cases: cell-based
[1] = target: T1, Oxysterols receptor LXR-alpha (Homo sapiens) (UniProt Q13133); experiment: Agonist activity at human LXRalpha expressed in HEK293 cells co-expressing CMX-beta-galactosidase at 30 uM incubated for 16 hrs by luciferase reporter gene assay
T1 sequence (whole entry): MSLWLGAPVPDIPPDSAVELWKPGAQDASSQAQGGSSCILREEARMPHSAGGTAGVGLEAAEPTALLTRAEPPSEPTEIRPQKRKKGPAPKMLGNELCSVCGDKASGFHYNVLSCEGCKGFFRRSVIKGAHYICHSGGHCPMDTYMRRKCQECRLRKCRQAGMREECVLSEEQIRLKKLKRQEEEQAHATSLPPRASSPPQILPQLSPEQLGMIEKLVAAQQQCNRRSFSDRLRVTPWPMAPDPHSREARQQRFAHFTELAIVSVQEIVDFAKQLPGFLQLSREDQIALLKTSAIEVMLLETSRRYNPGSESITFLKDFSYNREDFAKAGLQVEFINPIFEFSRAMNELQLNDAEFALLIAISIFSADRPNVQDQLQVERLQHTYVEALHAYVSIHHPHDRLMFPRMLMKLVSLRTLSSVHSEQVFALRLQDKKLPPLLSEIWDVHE

[2] = target: T2, Oxysterols receptor LXR-beta (Homo sapiens) (UniProt P55055); experiment: Agonist activity at human LXRbeta expressed in HEK293 cells co-expressing CMX-beta-galactosidase incubated for 16 hrs by luciferase reporter gene assay relative to T0901317
T2 sequence (whole entry): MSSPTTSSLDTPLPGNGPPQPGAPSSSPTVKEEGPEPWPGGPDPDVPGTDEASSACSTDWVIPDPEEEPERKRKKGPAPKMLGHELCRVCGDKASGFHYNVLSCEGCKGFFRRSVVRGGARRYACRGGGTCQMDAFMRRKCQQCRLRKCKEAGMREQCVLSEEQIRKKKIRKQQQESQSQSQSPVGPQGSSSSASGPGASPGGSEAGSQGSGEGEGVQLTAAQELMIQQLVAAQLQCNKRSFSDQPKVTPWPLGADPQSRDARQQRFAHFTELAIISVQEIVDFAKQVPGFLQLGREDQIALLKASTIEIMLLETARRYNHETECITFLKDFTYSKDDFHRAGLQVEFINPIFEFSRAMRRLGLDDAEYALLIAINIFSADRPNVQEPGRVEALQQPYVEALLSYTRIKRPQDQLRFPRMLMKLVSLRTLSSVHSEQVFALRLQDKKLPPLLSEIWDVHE

[3] = target: T3, Retinoic acid receptor beta (Homo sapiens) (UniProt P10826); experiment: Agonist activity at GAL4-tagged RARbeta (unknown origin) expressed in HEK293 cells co-expressing CMX-beta-galactosidase at 0.3 to 30 uM incubated for 16 hrs by luciferase reporter gene assay
T3 sequence (whole entry): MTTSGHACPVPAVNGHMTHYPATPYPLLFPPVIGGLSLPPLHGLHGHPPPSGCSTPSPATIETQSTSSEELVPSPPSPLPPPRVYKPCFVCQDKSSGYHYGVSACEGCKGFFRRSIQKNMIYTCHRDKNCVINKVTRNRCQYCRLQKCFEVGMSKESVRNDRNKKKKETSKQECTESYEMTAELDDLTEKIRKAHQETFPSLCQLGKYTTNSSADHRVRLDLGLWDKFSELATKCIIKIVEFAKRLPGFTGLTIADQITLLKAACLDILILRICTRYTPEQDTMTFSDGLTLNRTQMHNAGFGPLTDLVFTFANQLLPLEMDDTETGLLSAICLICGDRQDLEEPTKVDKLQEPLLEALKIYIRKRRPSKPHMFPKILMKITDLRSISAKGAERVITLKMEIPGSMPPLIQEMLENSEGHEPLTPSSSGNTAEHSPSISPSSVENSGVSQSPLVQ

[4] = target: T4, Retinoic acid receptor RXR-beta (Homo sapiens) (UniProt P28702); experiment: Agonist activity at GAL4-tagged RXRbeta (unknown origin) expressed in HEK293 cells co-expressing CMX-beta-galactosidase at 0.3 to 30 uM incubated for 16 hrs by luciferase reporter gene assay
T4 sequence (whole entry): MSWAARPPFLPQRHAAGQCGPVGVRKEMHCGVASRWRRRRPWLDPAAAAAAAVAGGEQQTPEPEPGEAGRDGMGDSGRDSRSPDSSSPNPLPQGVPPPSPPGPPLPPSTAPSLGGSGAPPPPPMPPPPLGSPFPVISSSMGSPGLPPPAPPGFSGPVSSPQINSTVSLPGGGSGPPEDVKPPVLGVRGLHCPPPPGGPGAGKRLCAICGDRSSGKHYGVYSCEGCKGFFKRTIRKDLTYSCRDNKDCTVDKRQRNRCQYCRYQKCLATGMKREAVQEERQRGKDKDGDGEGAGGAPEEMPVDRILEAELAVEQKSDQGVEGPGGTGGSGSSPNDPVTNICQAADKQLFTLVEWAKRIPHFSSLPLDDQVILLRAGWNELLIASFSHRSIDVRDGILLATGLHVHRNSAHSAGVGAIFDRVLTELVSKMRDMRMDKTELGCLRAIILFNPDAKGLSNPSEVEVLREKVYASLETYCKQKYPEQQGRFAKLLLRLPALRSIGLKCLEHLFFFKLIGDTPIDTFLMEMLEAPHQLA

[5] = target: T5, Bile acid receptor (Homo sapiens) (UniProt Q96RI1); experiment: Agonist activity at GAL4-tagged FXR (unknown origin) expressed in HEK293 cells co-expressing CMX-beta-galactosidase at 0.3 to 30 uM incubated for 16 hrs by luciferase reporter gene assay
T5 sequence (whole entry): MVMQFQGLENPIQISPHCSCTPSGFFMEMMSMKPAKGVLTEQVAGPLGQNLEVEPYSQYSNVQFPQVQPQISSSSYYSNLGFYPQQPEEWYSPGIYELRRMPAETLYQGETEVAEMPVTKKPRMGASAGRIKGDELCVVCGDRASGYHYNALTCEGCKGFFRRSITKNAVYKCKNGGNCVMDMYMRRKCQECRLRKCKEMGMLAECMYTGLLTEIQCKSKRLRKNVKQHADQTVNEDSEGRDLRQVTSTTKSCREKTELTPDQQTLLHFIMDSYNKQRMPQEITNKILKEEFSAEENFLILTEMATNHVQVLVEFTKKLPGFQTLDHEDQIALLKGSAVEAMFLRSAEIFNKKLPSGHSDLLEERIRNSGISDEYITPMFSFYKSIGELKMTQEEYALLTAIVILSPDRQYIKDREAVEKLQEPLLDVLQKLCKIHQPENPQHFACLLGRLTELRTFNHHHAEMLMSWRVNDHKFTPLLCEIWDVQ

Activity [1]: inactive
Efficacy [2]: 149%
Activity [3]: inactive
Activity [4]: inactive
Efficacy [5]: 9%
Compound: O=C1c2c(Cl)c(Cl)c(Cl)c(Cl)c2C(=O)N1c1ccccc1/C=C/c1cccs1
